In patent US20200316178A1 (SHIRE HUMAN GENETIC THERAPIES, INC., priority 2017, published 2020):
Like-named read-outs stand apart in the source and are kept apart here.

Legend:
GCB [1] = biological target: T1, GCB (Homo sapiens, UniProt P04062); assay: SDS-PAGE of GCB with non-pH-adjusted isofagomine; format: physicochemical; details: non-pH-adjusted isofagomine added to GCB
T1 sequence (P04062 40-536): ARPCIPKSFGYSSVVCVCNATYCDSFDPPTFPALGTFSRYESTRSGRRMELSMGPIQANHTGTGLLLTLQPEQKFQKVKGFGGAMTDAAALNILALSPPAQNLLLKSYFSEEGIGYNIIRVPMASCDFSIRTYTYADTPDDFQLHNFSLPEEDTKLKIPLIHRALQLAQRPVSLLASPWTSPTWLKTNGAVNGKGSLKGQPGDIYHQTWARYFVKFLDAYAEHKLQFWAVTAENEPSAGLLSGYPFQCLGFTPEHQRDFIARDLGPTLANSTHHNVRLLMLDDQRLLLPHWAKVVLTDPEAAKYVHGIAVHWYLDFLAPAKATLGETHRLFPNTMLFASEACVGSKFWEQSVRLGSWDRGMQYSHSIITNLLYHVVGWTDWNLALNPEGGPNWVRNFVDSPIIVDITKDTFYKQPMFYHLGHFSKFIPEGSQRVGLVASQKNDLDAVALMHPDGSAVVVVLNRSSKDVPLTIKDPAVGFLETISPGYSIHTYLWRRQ
Protocol: (§1) Samples were denatured at 37° C. for 15 minutes. SDS-PAGE was run on an 8-16% Novex™ Tris-glycine pre-cast gel. 50 mM dithiothretiol was used as the reducing agent.

GCB [2] = biological target: T1, GCB; assay: SDS-PAGE of GCB with pH-adjusted isofagomine; format: physicochemical; details: isofagomine pH adjusted to 6.0, GCB from 100 mg/ml, Day 0 and Day 3
Protocol: as §1
The results are shown in FIG. 4A for Day 0 and in FIG. 4B for Day 3.

[3] = biological target: T2, GCB (immobilized velaglucerase alfa) (Homo sapiens, UniProt P04062)
T2 sequence (P04062 40-536): T1 sequence (P04062 40-536)
Protocol: All SPR experiments were performed on a Biacore S-200 by a single-cycle kinetics method. For experiments at pH 7.4, 2 mg/ml GCB was diluted into the GE acetate pH 5.0 buffer to the final concentration of 100 μg/ml. The immobilization running buffer was 10 mM HEPES, 5 mM EDTA, 0.01% P-20, pH 7.4. This buffer was used directly in the binding assay subsequently.
For experiments at pH 5.0, 2 mg/ml GCB was diluted into the GE acetate pH 5.0 buffer to the final concentration of 100 μg/ml. The immobilization running buffer was 20 mM sodium phosphate, 2.7 mM potassium chloride, 137 mM sodium chloride, 5 mM tartrate, 0.01% P-20, pH 5.0. […] GCB was immobilized on a CM5 chip using a normal […] coupling procedure. The target immobilization level was 4000 RU.
For Biacore experiments at pH 7.4, the concentration range was 0.39-100 nM. The total was 9 points with 2-fold serial dilution. For Biacore experiments at pH 5.0, the concentration range was 0.39-100 nM. The total was 9 points with 2-fold serial dilution.
The conditions for the binding assay were as follows: 30 μl/min flow rate, 120 s association time, 600 s dissociation time, and 3 M magnesium chloride as the regeneration reagent.
For each of the pH 5.0 and pH 7.4 studies, two runs were performed. Black lines represent actual data and red lines represent model fitting.

[4] = biological target: T3, VPRIV (a form of GCB) in human serum (Homo sapiens, UniProt P04062); assay: VPRIV activity in human serum at 37° C. with IFG; format: in vitro ADME; details: 10 nM VPRIV, human serum 37° C.; for VPRIV activity remaining: 60 minutes
T3 construct: Velaglucerase is secreted as a monomeric glycoprotein of approximately 63 kDa; Velaglucerase is composed of 497 amino acids; made in house
T3 sequence (P04062 40-536): T1 sequence (P04062 40-536)
Protocol: Enzyme activity was measured using the cleavage of the 4-methylumbelliferone b-D-glucopyranoside substrate.

[5] = pH of IFGT dissolved in water; format: physicochemical; details: 103 mg dissolved in 5 ml of water
Protocol: When IFGT is dissolved in water, an acidic solution results. […] The pH was adjusted to 6.0 by adding 15 μl 10 M sodium hydroxide to the solution.

endogenous serum GCB = details: SC dose of 2.5 mg/kg
[6] = Serum exposure of GCB after SC velaglucerase alfa with IFG (ECL ELISA, 4MU-GPS activity assay); details: 0.07 mg/kg IFGT added to 4 mg/kg GCB
Protocol: Test articles for dosing were prepared as frozen formulations to the animal facility prior to dosing. Test articles were thawed approximately 1 to 3 hours prior to dosing.

In the case of `OC[C@H]1CNC[C@@H](O)[C@@H]1O` [IFG, isofagomine], the “fragments of GCB on SDS-PAGE” value (GCB [1]; 4° C.) is reported as “yielded fragments of GCB”, the “fragments of GCB on SDS-PAGE” value (GCB [1]; −80° C.) is reported as “not” and the “smaller bands (<50 kDa) on SDS-PAGE” value (GCB [2]) is reported as “No smaller bands having sizes of less than 50 kDa were observed”. For the same compound, the ka ([3]; First Run at pH 5.0) was 12500 M⁻¹ s⁻¹, the kd ([3]; First Run at pH 5.0) was 0.00314 s⁻¹ and the ka ([3]; First Run at pH 7.4) was 242000 M⁻¹ s⁻¹. It also gave a kd ([3]; First Run at pH 7.4) of 0.002274 s⁻¹, a ka ([3]; Second Run at pH 5.0) of 9883 M⁻¹ s⁻¹ and a kd ([3]; Second Run at pH 5.0) of 0.001954 s⁻¹. The ka ([3]; Second Run at pH 7.4) was 280000 M⁻¹ s⁻¹, the kd ([3]; Second Run at pH 7.4) was 0.001785 s⁻¹ and the VPRIV activity remaining ([4]; 1 nM IFG) was “around 40%”. For the same compound, the VPRIV activity remaining ([4]; 10 nM IFG) was “around 40%” and the “loss of VPRIV activity” value ([4]; 30 nM IFG (3× molar ratio) and higher) was “prevented most of the loss of activity”.
With `O=C(O)[C@H](O)[C@@H](O)C(=O)O.OCC1CNCC(O)[C@@H]1O` [Isofagomine tartrate, isofagomine tartrate] the “pH of the solution” value [5] was 3.25, the “GCB activity in the serum” value (endogenous serum GCB) was “increase GCB activity in the serum above the upper limit of normal” and the “overall enzyme activity of GCB in serum” value ([6]; 4MU-GPS substrate) was “substantially increased”. For the same compound, the “amount of GCB in serum” value ([6]; ECL ELISA) was “substantially increased”.
